According to patent publication US20110045101A1, “FUNGICIDAL SUBSTITUTED AZOLES” (E.I. Du Pont De Nemours and Company, priority 2009, published 2011):
Marks after values point to notes of the source that are not given here.

Columns and labels:
Assay type in all cases: in vivo
Details in all cases: 100 = 100% disease control
Septoria tritici = test: Test G: wheat leaf blotch on wheat seedlings, sprayed the day before inoculation, visual disease rating
Summary of the method: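 Compounds dissolved in acetone (3% of final volume), then suspended in 50/50 acetone/water with 250 ppm Trem® 014 and sprayed to run-off on seedlings at 200 ppm (≈500 g/ha) or 40 ppm where marked. Inoculation with spores followed next day; visual rating after 48 h saturated at 24° C plus 19 days at 20° C.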

[1] = test system: Puccinia recondita f. sp. tritici; test: Test H: wheat leaf rust, test suspension sprayed after inoculation of wheat seedlings, visual disease rating
Summary of the method: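 Wheat seedlings inoculated with P. recondita spores, held 24 h saturated at 20 °C, then 2 days in growth chamber at 20 °C; compound suspension (acetone/water with Trem 014) sprayed to run-off afterwards. Rated visually; 200 ppm (≈500 g/ha) unless marked *, which denotes 40 ppm.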

[2] = test system: Puccinia recondita f. sp. tritici; test: Test I: wheat leaf rust on wheat seedlings, sprayed the day before inoculation, visual disease rating
Summary of the method: (§1)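 Compounds were dissolved in acetone (3% of final volume), then suspended in 50/50 acetone/purified water with 250 ppm Trem® 014 surfactant. Suspensions at 200 ppm (some at 40 ppm) were sprayed to run-off, 200 ppm being equivalent to 500 g/ha.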

Botrytis cinerea = test: Test C: tomato Botrytis on tomato seedlings, sprayed the day before inoculation, visual disease rating
Summary of the method: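 Compounds were dissolved in acetone (3% of final volume), then suspended in 50/50 acetone/purified water containing 250 ppm polyhydric alcohol ester surfactant. Suspensions were sprayed to run-off on tomato seedlings at 200 ppm, equivalent to 500 g/ha, or at 40 ppm where marked.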

[3] = test system: Erysiphe graminis f. sp. tritici; test: Test J: wheat powdery mildew on wheat seedlings, sprayed the day before inoculation, visual disease rating
Summary of the method: as §1

Septoria nodorum = test: Test F: wheat glume blotch on wheat seedlings, sprayed the day before inoculation, visual disease rating
Summary of the method: as §1

Alternaria solani = test: Test D: tomato early blight, sprayed the day before inoculation, visual disease rating
Summary of the method: as §1

[4] = 200 ppm, 0 = no control relative to controls

Compound | Test G disease control rating (Septoria tritici; [4]) | Test H disease control rating [1, 4] | Test I disease control rating [2, 4] | Test C disease control rating (Botrytis cinerea; [4]) | Test J disease control rating [3, 4] | Test F disease control rating (Septoria nodorum; [4]) | Test D disease control rating (Alternaria solani; [4]) | Test G disease control rating (Septoria tritici; 40 ppm (marked *)) | Test H disease control rating ([1]; 40 ppm (marked *)) | Test I disease control rating ([2]; 40 ppm (marked *)) | Test C disease control rating (Botrytis cinerea; 40 ppm (marked *)) | Test J disease control rating ([3]; 40 ppm (marked *)) | Test F disease control rating (Septoria nodorum; 40 ppm (marked *)) | Test D disease control rating (Alternaria solani; 40 ppm (marked *))
COc1cc(OC)c(Cl)c(-n2cnc(Br)c2-c2ccc(Cl)cc2F)c1 [compound 641] | 99% | 100% | 100% | 95% | 83% | 94% | 96% | – | – | – | – | – | – | –
COc1cc(OC)c(Br)c(-n2cnc(Br)c2-c2ccc(Cl)cc2F)c1Cl [compound 642] | – | – | – | – | – | – | – | 94* % | 0* % | 98* % | 97* % | 56* % | 0* % | 0* %
CC(=O)Nc1ccc(-n2c(Br)nc(Cl)c2-c2c(F)cccc2F)cc1 [compound 643] | – | – | – | – | – | – | – | 87* % | 0* % | 52* % | 0* % | 0* % | 0* % | 0* %
COc1cc(F)c(-c2c(Cl)nc(Br)n2-c2ccc(OC)c(Cl)c2)c(F)c1 [compound 645] | – | – | – | – | – | – | – | 95* % | 0* % | 83* % | 99* % | 35* % | 0* % | 17* %
COc1cc(F)c(-c2c(Cl)nc(Cl)n2-c2ccc(OC)c(Cl)c2)c(F)c1 [compound 646] | – | – | – | – | – | – | – | 97* % | 0* % | 92* % | 93* % | 35* % | 0* % | 47* %
COc1cc(F)c(-c2c(Cl)nc(Cl)n2-c2ccc(C)c(I)c2)c(F)c1 [compound 647] | 95% | – | – | – | – | – | – | – | 0* % | 0* % | 0* % | 69* % | 0* % | 0* %
COC(=O)c1ccc(-n2c(Cl)nc(Cl)c2-c2c(F)cccc2F)cc1 [compound 649] | – | – | – | – | – | – | – | 97* % | 0* % | 61* % | 0* % | 0* % | 0* % | 0* %
CN(C)c1ccc(-n2cnc(Cl)c2-c2c(F)cccc2F)cc1Cl [compound 650] | – | – | – | – | – | – | – | 0* % | 9* % | 0* % | 0* % | 0* % | 0* % | 0* %
COc1cc(OC)cc(-c2c(Br)nc(C)n2-c2c(F)cc([N+](=O)[O-])cc2F)c1 [compound 651] | 97% | 0% | 95% | 97% | 79% | 60% | 0% | – | – | – | – | – | – | –
CN(C)c1c(Cl)cc(-n2cnc(Cl)c2-c2c(F)cccc2F)cc1Cl [compound 652] | – | – | – | – | – | – | – | 0* % | 6* % | 0* % | 0* % | 0* % | 0* % | 0* %
COc1cc(F)c(-c2c(Cl)nc(Cl)n2-c2ccc(C)cc2F)c(F)c1 [compound 653] | – | – | – | – | – | – | – | 100* % | 99* % | 100* % | 99* % | 99* % | 78* % | 99* %
